Test system: NDM-1 Kp
Test: LD90 NDM-1 Kp pneumonia murine model, survival
Format: in vivo, Balb/c mice
Conditions: colistin 20 or 1.25 mg/kg/day, days 4 and 5 PI
Text: To establish the optimal CST route, timing, and dosage regimen against MDR NDM-1 Kp-induced pneumonia, Balb/c mice (n=10-20 mice/gp) were infected with an i.n. LD90 and treated at various times and doses as depicted in Table 1. Doses included i.n. and/or i.p. single rCST9, rCSTC or a combination of rCST9 and rCSTC. Mice that were infected with NDM-1 Kp but were not treated served as controls. rCST treatments by routes, doses, or as a combined therapy were studied to select an optimal regimen.
Evaluate optimal timing and dosage of rCST-9 and/or PEG-rCST9 administration post-infection. Balb/c mice (n=10-20 mice/gp) were intranasally (i.n.) infected with approximately 1.82×10^8 CFU/mouse of Kp 2146 (as established hereinabove) then treated i.n. or i.p. with rCST9, human recombinant cystatin C (rCSTC) or a combination of rCST9 and rCSTC as depicted in Table 1. Kp infected alone served as controls. […] Therefore, as a comparative control to rCST9, the inventors evaluated the effectiveness of rCSTC against pneumonia using the same doses of 50 and/or 500 pg/mouse.
The potential for rCST9/rCSTC treatment to extend the period before successful antibiotic intervention was initiated was determined. For these evaluations, suboptimal doses of colistin were used to determine the extent of protection afforded by rCSTs as well as to minimize side effects/toxicity caused by this antibiotic (n=10 mice/gp). Doses, timing, and route of colistin were chosen based on efficacy studies of colistin in a mouse model of severe, established MDR pneumonia or a very low dose of colistin then adjusted to suboptimal levels for this study. LD90 NDM-1 Kp-challenged mice were treated with the rCST9/rCSTC 3 d i.p. treatment and then given 2 doses of colistin at 20 mg/kg/day or 1.25 mg/kg/day on day 4 and 5 PI.
Mouse model of pneumonia and CST treatments. Eight-week old female Balb/c mice weighing between 21 and 24 grams (Jackson Laboratories) were housed in an Association for Assessment and Accreditation for Laboratory Animal Care (AAALAC)-approved housing facility and permitted to adjust to their environment for 7 d prior to procedures, receiving free access to food and water throughout the study. All procedures were approved by the University of Texas Medical Branch IACUC and performed humanely with minimal suffering. […] One hour PI, mice were administered an i.n. dose of rCST9/rCSTC (50 pg of each) and then, this group of mice was given an i.p. injection of rCST9/rCSTC (500 pg of each) 3 d PI. A parallel group of infected mice received only a single i.p. dose of rCST9/rCSTC, PEG-rCST9/rCSTC (500 pg of each), or PEG-rCST9 (500 pg) alone 3 d PI. NDM-1-Kp infected mice alone or uninfected mice served as controls. Survival was observed up to 15 days post treatment. Additional groups (n=4 mice/group) of infected and CST-treated mice were euthanized at selected time points (24 h, 72 h, 5 and/or 10 d PI) to harvest lungs. Additional groups were treated with i.n. rCSTs (50 pg of each) as described above but they were euthanized at 30 min, 1 h and 3 h to collect lungs for the quantification of lipid peroxidase by-product, known as malondialdehyde (MDA), as described below.
Additional groups of mice (n=15 mice/group) were treated with the optimal CST treatment regimens of an i.n. dose of rCST9/rCSTC (50 pg of each), followed by an i.p. injection of rCST9/rCSTC (500 pg of each) 3 d PI or the single i.p. dose of rCST9/rCSTC (500 pg of each). At 4 d PI, mice were given 2 separate i.p. injections of colistin (JHP Pharmaceuticals, LLC; colistimethate sodium; 20 mg/kg/mouse or 1.25 mg/kg/day) 8 h apart for 2 d.

Substance: colistin [reference compound]
- survival protection compared to rCST monotherapy: neither of the antibiotic doses surpassed protection afforded by the rCST monotherapy

Reference: patent publication US12053511B2, “Cystatin C and Cystatin 9 to treat gut inflammation caused by thermal injury” (priority 2016, dated 2024)
